Where two headings read alike, the source gives them in different places. Bounds are passed on as bounds.

The values below come from patent publication US7491819B1 (priority 2004, dated 2009).

The target of one assay is T1, HIV-integrase (Human immunodeficiency virus type 1 group M subtype B, UniProt P12497).
T1 construct: Recombinant integrase (0.26 ng) was incubated with the beads
Briefly: HIV-Integrase Inhibition Activity (SPA bead strand-transfer assay). Type of assay: biochemical. The essentials:
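Biotin-labelled substrate DNA (5 pmole) bound to streptavidin SPA beads, preloaded with recombinant integrase (0.26 ng) for 90 min at 37° C, then washed. Inhibitors and 0.1 fmol P33-labelled target DNA added; reaction stopped with 10 mM EDTA. Integration read as scintillation CPM.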

The test system of the next assay is HIV-1 303B. Briefly: microbe, parasite or virus in culture. The format is cell-based. Conditions: for overall antiviral effect of the two-drug combination with Example 19 (in words): classification from combination indices and confidence intervals; for Combination Indices at 50% HIV Inhibition (Confidence Interval) / Combination Indices at 75% HIV Inhibition (Confidence Interval) / Combination Indices at 90% HIV Inhibition (Confidence Interval): in combination with Example 19, 95% CI in parenthesis. The procedure:
Virus and cell lines. The T-cell line, MT-2, was obtained through the AIDS Research and Reference Reagent Program. MT-2 cells were sub-cultured twice a week in RPMI 1640 medium supplemented with 10% fetal bovine serum, 2 mM L-glutamine, and 10 mM HEPES buffer pH 7.5. The HIV-1303B virus is a molecular clone derived from the NL4-3 strain of HIV-1 that was obtained from the NIH AIDS Research and Reference Reagent Program. For combinations with enfuvirtide, the NL36G virus was used. […] Virus stocks were made by transfecting 293T cells with a proviral DNA clone using LipofectAMINE PLUS (Invitrogen), according to the manufacturer's instructions. Three days post-transfection, virus was harvested and passaged once in MT-2 cells before titration in MT-2 cells.
Chemicals. Example 19, atazanavir, didanosine, stavudine, efavirenz, and enfuvirtide (T-20) were synthesized by Bristol-Myers Squibb using published or known reactions. […] Tenofovir was tested as tenofovir disopoxil fumarate. Zidovudine and zalcitabine were purchased from Sigma, and emtricitabine from Moravek Biochemicals.
Drug Susceptibility and Cytotoxicity Assays. For drug susceptibility assays, MT-2 cells were infected with HIV-1 303B (or NL36G), at an MOI of 0.001, and seeded into 96-well microtiter plates (2.5×10^5 cells/ml) containing serial dilutions of test compounds. […] Each drug ratio consisted of an array of 3-fold serial dilutions, and was performed with eight or more replicas on separate multi-well plates. HIV infected cells were incubated at 37° C. in 5% CO2, and on day five post-infection, the extent of virus replication was measured by determining cell viability using the CellTiter 96 Aqueous Non-Radioactive Cell Proliferation Assay (Promega). […] Cytotoxicity assays were performed in parallel with the combination experiments. Here, uninfected cells were exposed to the same drug combinations, and assayed after five days for cell viability using the MTS assay.
Analysis of Drug Combination Effects. For determination of combination index (CI) values, drugs were diluted in a fixed ratio and multiple ratios were analyzed. The drug serial dilutions spanned a range of concentrations near the EC50 value of each compound, so that equivalent antiviral activities could be compared. The normalized responses from each therapy are fit to the four-parameter logistic model with a common minimum and maximum across all therapies. Conceptually, this equation can be written as
In this equation, Fa stands for “fraction affected,” and represents the fraction of the viral load that has been inactivated. […] The EC50, represented by the Ci in the above equation, is the drug concentration that is expected to reduce the amount of virus by 50%, and the Bi are the parameters that reflects the slope of the concentration-response curve. For this assay, A is the bottom plateau common to all curves, D is the common top plateau, Bj is the “slope” parameter for the jth therapy, and Cj is the concentration that produces an effect equal to the average of A and D for the jth therapy. Therapies 1 and 2 correspond to mono therapies 1 and 2, respectively. Therapies 3, 4, and 5 correspond to the three combination therapies. EC50 values for each drug were determined from the single drug experiments, using the above equation. The equation was fit using a nonlinear regression routine (Proc Nlin) in PC SAS version 8.2 (SAS Institute Inc.).
To assess antiviral effects of different drug combination treatments, combination indices (CIs) were calculated according to Chou and Rideout. The combination index was computed as
In this equation [Dm]1 and [Dm]2 are the concentrations of drugs that would individually produce a specific level of effect, while [D]1 and [D]2 are the concentrations of drugs in combination that would produce the same level of effect.
Theoretically, additivity is implied if the CI is equal to one, synergy if the CI is less than one, and antagonism if the CI is greater than one.

Another assay has as its system NL-Rluc virus. Briefly: Inhibition of HIV replication (recombinant NL-Rluc virus, luciferase). The format is cell-based.
The mark [1] stands for this setting: Human immunodeficiency virus 1, MT2, 120 h.
The mark [2] stands for this setting: Human immunodeficiency virus 1, Table 2, serum condition not stated (10% FBS, 15 mg/ml human serum albumin/10% FBS or 40% human serum/5% FBS), at least 2 experiments, read-out: Activity (inhibition of HIV replication, EC50 class).
[3] abbreviates: Human immunodeficiency virus 1, read-out: Inhibition of HIV replication.
Setting [4] is: Table 2a, read-out: HIV-Integrase Inhibition Activity.
Setting [5] is: EC50 ratio Example 19:comparator 1:1.
[6] abbreviates: EC50 ratio Example 19:comparator 1:2.5.
The mark [7] stands for this setting: EC50 ratio Example 19:comparator 2.5:1.

In the case of `CC1(C)OCCn2c1nc(C(=O)NCc1ccc(F)cc1)c(O)c2=O` [Example 19, Pyrimido[2,1-c][1,4]oxazine-2-carboxamide, N-[(4-fluorophenyl)methyl]-4,6,7,9-tetrahydro-3-hydroxy-9,9-dimethyl-4-oxo-], at HIV-integrase (Table 1, read-out: Activity (HIV-integrase inhibition, IC50 class)), the IC50 was in the range of 0.002 to 0.1 µM. Besides, the EC50 in the assay on HIV-1 303B (setting [1]) was 0.022 µM. In the assay on HIV-1 303B, the “overall antiviral effect of the two-drug combination with Example 19 (in words)” value (from here on “overall antiviral effect”) is “synergistic or additive-synergistic”.

Turning to `CN(C)C(=O)Oc1cc(F)ccc1CNC(=O)c1nc2n(c(=O)c1O)CCOC2(C)C` [Example 96, Carbamic acid, dimethyl-, 5-fluoro-2-[[[(4,6,7,9-tetrahydro-3-hydroxy-9,9-dimethyl-4-oxopyrimido[2,1-c][1,4]oxazin-2-yl)carbonyl]amino]methyl]phenyl ester], the IC50 at HIV-integrase fell in the range of 0.002 to 0.1 µM. The EC50 with NL-Rluc virus (setting [2]) was 0.003 to 0.1 µM.

`CC1(C)OCCn2c1nc(C(=O)NCc1ccc(F)cc1OC(=O)N1CCOCC1)c(O)c2=O` [Example 99, 4-Morpholinecarboxylic acid, 5-fluoro-2-[[[(4,6,7,9-tetrahydro-3-hydroxy-9,9-dimethyl-4-oxopyrimido[2,1-c][1,4]oxazin-2-yl)carbonyl]amino]methyl]phenyl ester] gave an IC50 on HIV-integrase of 0.002 to 0.1 µM. Besides, in the assay on NL-Rluc virus (setting [2]), the EC50 was in the range of 0.003 to 0.1 µM.

At HIV-integrase, `CC1(C)OCCn2c1nc(C(=O)NCc1cccc(C3(C(F)(F)F)NN3)c1)c(O)c2=O` [Example 104, Pyrimido[2,1-c][1,4]oxazine-2-carboxamide, 4,6,7,9-tetrahydro-3-hydroxy-9,9-dimethyl-4-oxo-N-[[3-[3-(trifluoromethyl)-3-diaziridinyl]-phenyl]-methyl]-] registered an IC50 of 0.1 to 1 µM. The EC50 with NL-Rluc virus (setting [2]) is 0.1 to 1 µM.

As to `CCC1OCCn2c1nc(C(=O)NCc1ccc(F)cc1-n1ncnc1C)c(O)c2=O` (centres unmarked) [Example 285, Pyrimido[2,1-c][1,4]oxazine-2-carboxamide, 9-ethyl-N-[[4-fluoro-2-(5-methyl-1H-1,2,4-triazol-1-yl)phenyl]methyl]-4,6,7,9-tetrahydro-3-hydroxy-4-oxo-], in the assay with NL-Rluc virus (setting [3]), the EC50 was in the range of 0.003 to 0.1 µM.

`CC1(C)OCCn2c1nc(C(=O)NCc1ccc(F)cc1P(=O)(O)O)c(O)c2=O` [Example 289, Phosphonic acid, [5-fluoro-2-[[[(4,6,7,9-tetrahydro-3-hydroxy-9,9-dimethyl-4-oxopyrimido[2,1-c][1,4]oxazin-2-yl)carbonyl]amino]methyl]phenyl]-]: the IC50 on HIV-integrase (setting [4]) is 0.002 to 0.1 µM. For the same compound, the EC50 in the assay with NL-Rluc virus (setting [3]) was more than 1 µM.

Turning to `COP(=O)(O)c1cc(F)ccc1CNC(=O)c1nc2n(c(=O)c1O)CCOC2(C)C` [Example 290, Phosphonic acid, [5-fluoro-2-[[[(4,6,7,9-tetrahydro-3-hydroxy-9,9-dimethyl-4-oxopyrimido[2,1-c][1,4]oxazin-2-yl)carbonyl]amino]methyl]phenyl]-, monomethyl ester], the IC50 at HIV-integrase (setting [4]) was in the range of 0.002 to 0.1 µM. Moreover, in the assay with NL-Rluc virus (setting [3]), the EC50 was 0.1 to 1 µM.

For the compound `CC1(C)OCCn2c1nc(C(=O)NCc1ccc(F)cc1P1(=O)OCCO1)c(O)c2=O` [Example 291, Pyrimido[2,1-c][1,4]oxazine-2-carboxamide, N-[[4-fluoro-2-(2-oxido-1,3,2-dioxaphospholan-2-yl)phenyl]methyl]-4,6,7,9-tetrahydro-3-hydroxy-9,9-dimethyl-4-oxo-], the IC50 at HIV-integrase (setting [4]) is 0.002 to 0.1 µM. In addition, in the assay on NL-Rluc virus (setting [3]), the EC50 is more than 1 µM.

`CC1(C)OCCn2c1nc(C(=O)NCc1ccc(F)cc1P(=O)(O)OCCO)c(O)c2=O` [Example 292, Phosphonic acid, [5-fluoro-2-[[[(4,6,7,9-tetrahydro-3-hydroxy-9,9-dimethyl-4-oxopyrimido[2,1-c][1,4]oxazin-2-yl)carbonyl]amino]methyl]phenyl]-, mono(2-hydroxyethyl) ester]: at HIV-integrase (setting [4]), the IC50 lay in the range of 0.002 to 0.1 µM. Besides, the EC50 in the assay with NL-Rluc virus (setting [3]) was more than 1 µM.

As to `CC1(C)OCCn2c1nc(C(=O)NCc1ccc(F)cc1P(=O)(OCCO)OCCO)c(O)c2=O` [Example 293, Phosphonic acid, [5-fluoro-2-[[[(4,6,7,9-tetrahydro-3-hydroxy-9,9-dimethyl-4-oxopyrimido[2,1-c][1,4]oxazin-2-yl)carbonyl]amino]methyl]phenyl]-, bis(2-hydroxyethyl) ester], the IC50 on HIV-integrase (setting [4]) lay within 0.002 to 0.1 µM. In addition, the EC50 in the assay on NL-Rluc virus (setting [3]) was in the range of 0.1 to 1 µM.

As for `C[C@H](Cn1cnc2c(N)ncnc21)OCP(=O)(O)O` [Tenofovir, tenofovir], the “overall antiviral effect” value in the assay with HIV-1 303B is reported as “synergistic to additive”. In addition, in the assay with HIV-1 303B (setting [5]), the “Combination Indices at 50% HIV Inhibition (Confidence Interval)” value is listed as 0.66 (0.57, 0.75); the “Combination Indices at 75% HIV Inhibition (Confidence Interval)” value was 0.54 (0.45, 0.62); the “Combination Indices at 90% HIV Inhibition (Confidence Interval)” value is recorded as 0.43 (0.33, 0.53). In the assay with HIV-1 303B (setting [6]), the “Combination Indices at 50% HIV Inhibition (Confidence Interval)” value is listed as 0.68 (0.59, 0.77); the “Combination Indices at 75% HIV Inhibition (Confidence Interval)” value is 0.60 (0.48, 0.72); the “Combination Indices at 90% HIV Inhibition (Confidence Interval)” value was 0.52 (0.36, 0.69). Also, in the assay with HIV-1 303B (setting [7]), the “Combination Indices at 50% HIV Inhibition (Confidence Interval)” value is on record as 0.90 (0.77, 1.04); the “Combination Indices at 75% HIV Inhibition (Confidence Interval)” value is given as 0.84 (0.67, 1.01); the “Combination Indices at 90% HIV Inhibition (Confidence Interval)” value is reported as 0.79 (0.55, 1.03). Further, the EC50 in the assay on HIV-1 303B (single drug, MT-2 cells, MOI 0.001, day five, MTS cell viability, read-out: EC50) is 0.018 µM.

For `Nc1ccn([C@H]2CC[C@@H](CO)O2)c(=O)n1` [Zalcitabine, zalcitabine], the EC50 in the assay with HIV-1 303B (setting [1]) stood at 0.124 µM. In addition, the “overall antiviral effect” value in the assay with HIV-1 303B is given as “synergistic to additive”. For the same compound, in the assay on HIV-1 303B (setting [5]), the “Combination Indices at 50% HIV Inhibition (Confidence Interval)” value is 0.61 (0.48, 0.73); the “Combination Indices at 75% HIV Inhibition (Confidence Interval)” value is recorded as 0.56 (0.39, 0.73); the “Combination Indices at 90% HIV Inhibition (Confidence Interval)” value was 0.53 (0.28, 0.79). Further, in the assay with HIV-1 303B (setting [6]), the “Combination Indices at 50% HIV Inhibition (Confidence Interval)” value was 0.55 (0.44, 0.66); the “Combination Indices at 75% HIV Inhibition (Confidence Interval)” value was 0.40 (0.31, 0.49); the “Combination Indices at 90% HIV Inhibition (Confidence Interval)” value is on record as 0.30 (0.18, 0.42). Besides, in the assay on HIV-1 303B (setting [7]), the “Combination Indices at 50% HIV Inhibition (Confidence Interval)” value is 0.80 (0.62, 0.97); the “Combination Indices at 75% HIV Inhibition (Confidence Interval)” value is recorded as 0.82 (0.58, 1.07); the “Combination Indices at 90% HIV Inhibition (Confidence Interval)” value is 0.86 (0.46, 1.26).

As for `Cc1cn([C@H]2C[C@H](N=[N+]=[N-])[C@@H](CO)O2)c(=O)[nH]c1=O` [Zidovudine], the EC50 in the assay with HIV-1 303B (setting [1]) was determined as 0.012 µM. Moreover, the “overall antiviral effect” value with HIV-1 303B is listed as “synergistic to additive”. Also, in the assay on HIV-1 303B (setting [5]), the “Combination Indices at 50% HIV Inhibition (Confidence Interval)” value is 0.59 (0.49, 0.69); the “Combination Indices at 75% HIV Inhibition (Confidence Interval)” value was 0.56 (0.41, 0.70); the “Combination Indices at 90% HIV Inhibition (Confidence Interval)” value was 0.54 (0.36, 0.70). Besides, in the assay with HIV-1 303B (setting [6]), the “Combination Indices at 50% HIV Inhibition (Confidence Interval)” value is listed as 0.65 (0.56, 0.75); the “Combination Indices at 75% HIV Inhibition (Confidence Interval)” value was 0.73 (0.59, 0.86); the “Combination Indices at 90% HIV Inhibition (Confidence Interval)” value is 0.81 (0.57, 1.06). In the assay on HIV-1 303B (setting [7]), the “Combination Indices at 50% HIV Inhibition (Confidence Interval)” value is reported as 0.72 (0.61, 0.83); the “Combination Indices at 75% HIV Inhibition (Confidence Interval)” value was 0.83 (0.64, 1.02); the “Combination Indices at 90% HIV Inhibition (Confidence Interval)” value was 0.96 (0.63, 1.30).
